One experiment concerns ASA. Conditions: daily i.p. 100 mg/kg body weight, cited from earlier work.
The next experiment has as its target partially purified ASA (Homo sapiens, UniProt P15289). The procedure: FIG. 3. […] A preparation of partially purified human fibroblast ASA containing other lysosomal hydrolases was incubated for 1 hr at 4° C. in the presence of lead acetate as described in the text. ASA and other hydrolase enzymic activities were determined. The data are expressed relative to the control and the s.e.m at each concentration of lead is indicated.
(§1) The direct effect of lead on ASA activity was also studied. […] Human fibroblast ASA was enriched in a preparation of isolated lysosomal enzymes as described by Gorman and Poretz [J. Cell. Physiol. 131:158-164 (1987)]. Lead acetate in buffer was added to protein preparations containing approximately 2 units of ASA activity in a total volume of 2.0 ml and incubated at 4° C. A control lacking lead was also prepared in an identical fashion. Aliquots were removed at 30 min, 1 hr, 24 hr, and 48 hr and analyzed for ASA, β-galactosidase and β-hexosaminidaseactivities. Enzymic and protein analyses were performed in triplicate, and the complete experiment was repeated three times.

The next experiment relates to β-hexosaminidase. The note with it: every concentration of metal studied. The protocol:
as §1

A further experiment concerns β-galactosidase. Conditions: similar conditions as for ASA. The protocol: as §1
In another experiment the test system is isolated lysosomes. The note with it: cited from earlier work.
The next experiment has as its target arylsulfatase A (ASA) (Homo sapiens, UniProt P15289). The note with it: fibroblasts. The procedure:
FIG. 2. The effect of lead acetate on intracellular ASA enzymic activity in cultured human fibroblasts. Fibroblasts were grown in vitro as monolayer cultures in the absence or presence of different concentrations of lead acetate as described in the text. The cells were dissolved in buffer containing detergent and the enzymic activity of ASA and other lysosomal enzymes and protein concentration were determined. The data are expressed relative to the control and the s.e.m. at each concentration of lead is indicated.
The potential effect of lead on cellular levels of ASA was examined in an in vitro system employing human fibroblasts. […] Fibroblast cultures were derived from punch biopsies and maintained in glutamine/penicillin/streptomycin/fetal bovine serum supplemented EMEM or in the same supplemented medium containing 0.5. 5.0. or 20 μM lead acetate. These cultures were split every three cell cycles for a total of 6-12 cell divisions. Fibroblasts in logarithmic growth were washed with PBS and dissolved in 1 mL of PBS containing 0.1% Triton X-100. This suspension was centriftiged for 5 min at 12,000 ×g and the supernatant was employed for determination of ASA and arylsulfatase B (ASB) activities using p-nitrocatechol sulfate as described by Baum et al. [Clin. Chim. Acta 4:453-455 (1959)] and β-galactosidase [Poretz et al., supra]. Each assay was performed in triplicate, and the complete experiment was repeated three times on different occasions for evaluating the effect of lead on cellular levels of ASA.

The next experiment has as its system rat fibroblasts. The note with it: lead nitrate in the growth medium; cited from earlier work.

Where two headings read alike, the source gives them in different places.

arylsulfatase A (ASA), sequence (P15289 19-507): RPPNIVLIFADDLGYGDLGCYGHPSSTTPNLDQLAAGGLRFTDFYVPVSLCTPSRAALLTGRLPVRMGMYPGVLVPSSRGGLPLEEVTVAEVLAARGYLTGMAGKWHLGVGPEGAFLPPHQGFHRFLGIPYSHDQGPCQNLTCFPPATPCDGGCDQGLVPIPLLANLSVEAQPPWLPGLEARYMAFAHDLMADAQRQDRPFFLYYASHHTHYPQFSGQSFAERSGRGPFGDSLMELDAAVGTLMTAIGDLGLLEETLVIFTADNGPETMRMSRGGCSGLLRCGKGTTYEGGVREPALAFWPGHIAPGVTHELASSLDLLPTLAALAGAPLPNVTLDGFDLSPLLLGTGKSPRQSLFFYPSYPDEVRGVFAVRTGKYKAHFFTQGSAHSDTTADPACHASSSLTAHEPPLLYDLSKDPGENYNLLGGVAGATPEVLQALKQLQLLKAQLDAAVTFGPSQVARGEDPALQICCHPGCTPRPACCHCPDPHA
partially purified ASA, sequence (P15289 19-507): as above

Turning to `CC(=O)[O-].CC(=O)[O-].[Pb+2]` [lead acetate], the “reduction in ASA activity vs control animals” value with ASA (rat kidney) was 20%. For the same compound, the “reduction in ASA activity vs control animals” value in the experiment on ASA (rat liver) is on record as 55%. In addition, the “loss of ASA activity” value at partially purified ASA (200 μM lead acetate, 4° C., p=0.045) came out at 67%. Besides, the “time of maximum effect on ASA activity” value at partially purified ASA (4° C., unchanged up to 48 hr) turned out to be 1 h. Moreover, the “effect on partially purified ASA” value at partially purified ASA (100-200 μM lead acetate) is “precipitation of the enzyme and loss of enzymic activity”. In addition, the “effect on β-hexosaminidase activity” value in the experiment with β-hexosaminidase is “closely paralleled that for ASA activity”. Besides, the “effect on β-galactosidase activity” value in the experiment with β-galactosidase is recorded as “no reduction”. Further, the “decrease in stability of the lysosome” value in the experiment on isolated lysosomes is “greater than 200 fold”. The “facilitated calcium transport by isolated lysosomes” value in the experiment with isolated lysosomes (lead as low as 300 μM, concentration dependent) is “markedly increased”. In addition, at arylsulfatase A (ASA), the “amount of ASA relative to control cells grown without lead” value is at least 65% and the “reduction of cellular ASA activity” value is recorded as 32-36%. Further, at arylsulfatase A (ASA) (0.5 µM), the “reduction of cellular ASA specific activity” value was determined as 14%. The “decrease of ASA lysosomal enzyme activity vs cells in normal medium” value on arylsulfatase A (ASA) (20 µM) is 32-36%.
In the case of `O=[N+]([O-])[O-].O=[N+]([O-])[O-].[Pb+2]` [lead nitrate], the lysosomal membrane stability entry with rat fibroblasts was “reduction in lysosomal membrane stability”.

(Values after patent US5935790A, “Method for detecting a predisposition to susceptibility to toxic effects of drugs and poisons” (Rutgers, The State University of New Jersey, priority 1997, dated 1999).)
